The values that follow are results of earlier work, collected in article PMC8400941, “Preclinical Toxicity and Safety of MM-129—First-in-Class BTK/PD-L1 Inhibitor as a Potential Candidate against Colon Cancer” (Pharmaceutics, 2021).

Details of data set [1]: method as in PMID 24079553. The settings on record: cited from earlier work.
For data set [2], the system named is patients. The settings on record: chemotherapy regimens used in CRC; cited from earlier work.
Data set [3] relates to BFU-E growth. Also on record: method as in PMID 17318617. The settings on record: multiple administration, 350 mg/kg/day, transient; cited from earlier work.
The subject of data set [4] is zebrafish embryos/larvae. The settings on record: 5 μM; cited from earlier work.

Consider `CC[C@H](CO)Nc1nc(NCc2ccc(-c3ccccn3)cc2)c2ncn(C(C)C)c2n1` [CR8], for which the elimination half-life entry in data set [1] was “about 3 h”.
Regarding `O=c1[nH]cc(F)c(=O)[nH]1` [5-FU, 5-fluorouracil], in data set [2], the patients with hepatotoxicity entry is reported as “up to 47%”.
With `CC[C@H](CO)Nc1nc(NCc2ccccc2)c2ncn(C(C)C)c2n1` [seliciclib], the “BFU-E growth, of the controls” value in data set [3] was “less than 50%”. In addition, in data set [4], the “embryos with absence of swimming activity, lack of heartbeat and tail blood flow” value is 57%; the “larvae with curved body” value is on record as 50%; the “larvae with edema (both mild and severe)” value is 82%.
